Reference: BindingDB's records for PubMed 32739648 (n/a, 2020)

Molecular target: Epidermal growth factor receptor (Homo sapiens, UniProt P00533)
Test: Inhibition of human EGFR incubated for 1 hrs in presence of ATP by ELISA assay

Epidermal growth factor receptor, sequence (P00533 whole entry): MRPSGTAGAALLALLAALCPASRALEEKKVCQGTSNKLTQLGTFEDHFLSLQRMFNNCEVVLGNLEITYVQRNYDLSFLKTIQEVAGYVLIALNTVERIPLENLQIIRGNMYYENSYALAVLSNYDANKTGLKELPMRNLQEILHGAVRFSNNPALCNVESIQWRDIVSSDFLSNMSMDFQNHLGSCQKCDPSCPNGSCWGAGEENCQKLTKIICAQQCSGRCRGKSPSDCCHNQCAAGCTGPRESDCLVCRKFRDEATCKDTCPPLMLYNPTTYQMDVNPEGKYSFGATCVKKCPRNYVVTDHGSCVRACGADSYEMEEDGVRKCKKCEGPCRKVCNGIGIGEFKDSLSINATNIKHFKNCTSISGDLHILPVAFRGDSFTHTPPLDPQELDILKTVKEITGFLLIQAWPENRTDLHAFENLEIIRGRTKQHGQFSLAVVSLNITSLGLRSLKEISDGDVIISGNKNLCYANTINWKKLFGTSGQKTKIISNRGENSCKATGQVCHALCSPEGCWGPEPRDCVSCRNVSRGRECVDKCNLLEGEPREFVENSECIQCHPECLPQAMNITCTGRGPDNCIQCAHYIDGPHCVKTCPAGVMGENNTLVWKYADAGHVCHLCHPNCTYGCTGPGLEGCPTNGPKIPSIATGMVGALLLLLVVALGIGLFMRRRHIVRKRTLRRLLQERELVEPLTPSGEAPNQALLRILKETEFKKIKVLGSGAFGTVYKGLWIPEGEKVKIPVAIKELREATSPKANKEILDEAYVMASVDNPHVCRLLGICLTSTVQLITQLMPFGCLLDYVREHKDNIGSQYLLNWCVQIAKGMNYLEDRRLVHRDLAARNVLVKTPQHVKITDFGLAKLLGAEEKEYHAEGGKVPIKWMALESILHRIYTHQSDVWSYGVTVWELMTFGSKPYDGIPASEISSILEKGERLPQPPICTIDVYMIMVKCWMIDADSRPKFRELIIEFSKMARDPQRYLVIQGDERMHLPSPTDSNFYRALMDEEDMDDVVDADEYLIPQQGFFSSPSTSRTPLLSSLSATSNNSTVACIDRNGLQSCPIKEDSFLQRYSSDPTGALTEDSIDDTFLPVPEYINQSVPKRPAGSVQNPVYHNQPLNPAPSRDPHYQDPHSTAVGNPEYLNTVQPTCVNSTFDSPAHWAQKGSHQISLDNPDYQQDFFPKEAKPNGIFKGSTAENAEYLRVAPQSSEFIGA

- IC50: 22 nM
SMILES: CSCC[C@@H](NC(=O)[C@@H](NC(=O)[C@@H](NC(=O)CC(=O)N(O)C/C=C(\C)CC/C=C(\C)CCC=C(C)C)C(C)C)C(C)C)C(=O)O
